Assay results as given in patent US20240270821A1, “GIP/GLP1/GCG TRI-RECEPTOR AGONISTS AND USES THEREOF” (priority 2023, published 2024).
Where two headings read alike, the source gives them in different places. Starred links: 1 amine or outer side, 2 acyl side, 3 side chain; linkers in the order of their positions; H or OH if unused. Non-standard residues stand in square brackets, D forms with d. Residues, ends and D or L forms follow the SMILES beside them. Groups on a side chain read outwards from the residue. *: point of attachment. C18 diacid = O=C(O)CCCCCCCCCCCCCCCCC(=O)*; αMePhe(2-F) = C[C@](N)(Cc1ccccc1F)C(=O)O; γGlu = O=C(O)[C@H](CCC(=O)[*:2])N[*:1]; αMe4Pal = C[C@](N)(Cc1ccncc1)C(=O)O; αMeY = C[C@](N)(Cc1ccc(O)cc1)C(=O)O; 4Pal = N[C@@H](Cc1ccncc1)C(=O)O; αMeL = CC(C)C[C@](C)(N)C(=O)O; αMeS = C[C@](N)(CO)C(=O)O; Orn = NCCC[C@H](N)C(=O)O; AEEA = NCCOCCOCC(=O)O; Aib = CC(C)(N)C(=O)O

Legend:
Assay type in all cases: cell-based
[1] = target: T1, hGIPR (Homo sapiens, UniProt P48546); experiment: Functional cAMP activity in the presence of 1% HSA; conditions: read-out: cAMP Rel EC50, hGIPR
T1 sequence (P48546 22-466): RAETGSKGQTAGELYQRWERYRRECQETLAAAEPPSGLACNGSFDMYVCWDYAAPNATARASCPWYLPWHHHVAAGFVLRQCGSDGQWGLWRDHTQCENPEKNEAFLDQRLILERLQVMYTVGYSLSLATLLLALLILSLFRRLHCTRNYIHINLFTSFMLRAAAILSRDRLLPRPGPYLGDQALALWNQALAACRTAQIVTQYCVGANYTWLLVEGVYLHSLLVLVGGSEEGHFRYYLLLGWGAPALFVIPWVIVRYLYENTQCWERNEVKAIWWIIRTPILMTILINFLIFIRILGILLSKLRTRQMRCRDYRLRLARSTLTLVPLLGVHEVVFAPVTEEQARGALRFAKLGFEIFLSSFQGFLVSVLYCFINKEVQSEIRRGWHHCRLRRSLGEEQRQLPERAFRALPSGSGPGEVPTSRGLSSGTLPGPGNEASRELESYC

[2] = target: T2, hGLP-1R (Homo sapiens, UniProt P43220); experiment: Functional cAMP activity in the presence of 1% HSA; conditions: read-out: cAMP Rel EC50, hGLP-1R
[3] = target: human GcgR (Homo sapiens, UniProt P47871); experiment: Functional cAMP activity in the presence of 1% HSA; conditions: read-out: cAMP Rel EC50, hGcgR
[4] = target: T1, hGIPR; experiment: Functional cAMP activation in the presence of 0.1% casein (no HSA); conditions: read-out: Relative cAMP EC50, hGIPR;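 as to Relative cAMP EC50, hGIPR: intracellular cAMP rise after 30 min at 37 °C read by HTRF against a standard curve, scaled between buffer alone (0%) and top control ligand concentration (100%), four-parameter fit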;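 as to Relative cAMP EC50, hGLP-1R: intracellular cAMP rise after 30 min at 37 °C read by HTRF, normalized between buffer only (0%) and maximal control ligand (100%), four-parameter variable-slope fit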;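 as to Relative cAMP EC50, hGcgR: intracellular cAMP rise after 30 min at 37 °C, read by HTRF against a cAMP standard curve, scaled from buffer only (0%) to maximal control ligand response (100%)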
[5] = target: T2, hGLP-1R; experiment: as above; conditions: read-out: Relative cAMP EC50, hGLP-1R
[6] = target: hGcgR (Homo sapiens, UniProt P47871); experiment: as above; conditions: read-out: Relative cAMP EC50, hGcgR;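 also: intracellular cAMP rise after 30 min at 37 °C, read by HTRF against a cAMP standard curve, scaled from buffer only (0%) to maximal control ligand response (100%)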
[7] = in the presence of 0.1% casein (no HSA), geometric mean

Chain of human GcgR (P47871 26-477): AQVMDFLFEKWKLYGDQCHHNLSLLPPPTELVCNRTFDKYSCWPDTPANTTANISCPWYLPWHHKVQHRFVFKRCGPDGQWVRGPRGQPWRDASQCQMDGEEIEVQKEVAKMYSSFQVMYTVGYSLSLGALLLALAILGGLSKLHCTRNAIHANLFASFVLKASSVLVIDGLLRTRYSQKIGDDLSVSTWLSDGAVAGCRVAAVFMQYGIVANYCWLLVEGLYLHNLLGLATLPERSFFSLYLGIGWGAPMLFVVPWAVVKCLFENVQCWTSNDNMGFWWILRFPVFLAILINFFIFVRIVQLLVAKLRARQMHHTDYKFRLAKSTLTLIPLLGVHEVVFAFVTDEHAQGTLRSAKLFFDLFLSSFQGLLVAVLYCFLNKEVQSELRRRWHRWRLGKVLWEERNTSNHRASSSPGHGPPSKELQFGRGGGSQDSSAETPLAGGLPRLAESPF
Chain of hGcgR (P47871 26-477): as above
T2 sequence (P43220 24-463): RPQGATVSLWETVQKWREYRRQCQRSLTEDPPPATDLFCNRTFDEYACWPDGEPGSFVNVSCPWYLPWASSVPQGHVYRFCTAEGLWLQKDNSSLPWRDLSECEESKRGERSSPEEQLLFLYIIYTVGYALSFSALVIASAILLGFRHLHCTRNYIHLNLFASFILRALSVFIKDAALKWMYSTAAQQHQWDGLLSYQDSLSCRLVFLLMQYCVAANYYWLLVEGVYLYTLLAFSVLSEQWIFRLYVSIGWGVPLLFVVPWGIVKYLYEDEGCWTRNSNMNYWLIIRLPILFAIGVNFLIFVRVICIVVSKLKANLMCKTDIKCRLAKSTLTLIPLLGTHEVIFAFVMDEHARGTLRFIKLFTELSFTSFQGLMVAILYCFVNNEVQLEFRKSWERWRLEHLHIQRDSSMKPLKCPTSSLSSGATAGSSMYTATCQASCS

CC[C@H](C)[C@H](NC(=O)[C@H](CC(C)C)NC(=O)[C@](C)(Cc1ccc(O)cc1)NC(=O)[C@@H](CCC(=O)O)NC(=O)[C@@H](NC(=O)[C@H](Cc1ccccc1)NC(=O)[C@H](CCC(=O)O)NC(=O)C(C)(C)NC(=O)[C@H](C)NC(=O)[C@H](C)NC(=O)[C@H](CCCCNC(=O)COCCOCCNC(=O)CC[C@H](NC(=O)CCCCCCCCCCCCCCCCC(=O)O)C(=O)O)NC(=O)[C@H](CCCN)NC(=O)[C@H](CC(=O)O)NC(=O)[C@H](CC(C)C)NC(=O)[C@](C)(CC(C)C)NC(=O)[C@@H](NC(=O)[C@](C)(CO)NC(=O)[C@H](Cc1ccncc1)NC(=O)[C@H](CC(=O)O)NC(=O)[C@H](CO)NC(=O)[C@@H](NC(=O)[C@](C)(Cc1ccccc1F)NC(=O)[C@@H](NC(=O)CNC(=O)[C@H](CCC(N)=O)NC(=O)C(C)(C)NC(=O)[C@@H](N)Cc1ccc(O)cc1)[C@@H](C)O)[C@@H](C)O)[C@@H](C)CC)[C@@H](C)CC)C(=O)N[C@@H](CCC(=O)O)C(=O)NCC(=O)NCC(=O)N1CCC[C@H]1C(=O)N[C@@H](CO)C(=O)N[C@@H](CO)C(=O)NCC(=O)N[C@@H](C)C(=O)N1CCC[C@H]1C(=O)N1CCC[C@H]1C(=O)N1CCC[C@H]1C(=O)N[C@@H](CO)C(=O)NCC(=O)N[C@@H](CO)C(N)=O [Example 671]
EC50 [1]: 0.657 nM
EC50 [2]: 17.6 nM
EC50 [3]: 152 nM
EC50 [4]: 0.00807 nM
EC50 [5]: 0.166 nM
EC50 [6]: 1.81 nM

CC[C@H](C)[C@H](NC(=O)[C@H](Cc1ccccc1)NC(=O)[C@H](C)NC(=O)C(C)(C)NC(=O)[C@H](CCC(N)=O)NC(=O)[C@H](C)NC(=O)[C@H](CCCCNC(=O)COCCOCCNC(=O)CC[C@H](NC(=O)CCCCCCCCCCCCCCCCC(=O)O)C(=O)O)NC(=O)[C@H](CCCCN)NC(=O)[C@H](CC(=O)O)NC(=O)[C@H](CC(C)C)NC(=O)[C@](C)(CC(C)C)NC(=O)[C@H](CCCN)NC(=O)[C@H](CO)NC(=O)[C@H](Cc1ccccc1)NC(=O)[C@H](CC(=O)O)NC(=O)[C@H](CO)NC(=O)[C@@H](NC(=O)[C@H](Cc1ccccc1)NC(=O)[C@@H](NC(=O)CNC(=O)[C@H](CCC(N)=O)NC(=O)C(C)(C)NC(=O)[C@@H](N)Cc1ccc(O)cc1)[C@@H](C)O)[C@@H](C)O)C(=O)N[C@@H](CCC(=O)O)C(=O)N[C@@H](Cc1ccc(O)cc1)C(=O)N[C@@H](CC(C)C)C(=O)N[C@@H](CC(C)C)C(=O)N[C@@H](CCC(=O)O)C(=O)N[C@H](C)C(=O)NCC(=O)N1CCC[C@H]1C(=O)N[C@@H](CO)C(=O)N[C@@H](CO)C(=O)NCC(=O)N[C@@H](C)C(=O)N1CCC[C@H]1C(=O)N1CCC[C@H]1C(=O)N1CCC[C@H]1C(=O)N[C@@H](CCC(=O)O)C(=O)NCC(=O)N[C@@H](CCC(=O)O)C(N)=O [Example 206]
EC50 [1]: 38.8 nM
EC50 [2]: 372 nM
EC50 [3]: 545 nM
EC50 [4, 7]: 0.224 nM
EC50 [5, 7]: 2.77 nM
EC50 [6, 7]: 2.2 nM

H-Y[Aib]QGTFTSD[4Pal]SQ[αMeL]LDKK([AEEA-γGlu-γGlu-C18 diacid])AQ[αMe4Pal]AFIEWLIEGGPSSGAPPPSGS-NH2 [Example 871]
EC50 [1]: 35.4 nM
EC50 [2]: 230 nM
EC50 [3]: 2060 nM
EC50 [4, 7]: 0.2 nM
EC50 [5, 7]: 2.92 nM
EC50 [6, 7]: 12.6 nM

H-Y[Aib]QGT[αMePhe(2-F)]TSD[4Pal]SI[αMeL]LD[Orn]K([AEEA-γGlu-C18 diacid])AQ[αMe4Pal]EFI[dE][αMeY]LAEGGPSSGAPPPSGS-NH2 [Example 642]
EC50 [1]: 0.791 nM
EC50 [2]: 67.1 nM
EC50 [3]: 519 nM
EC50 [4]: 0.00796 nM
EC50 [5]: 0.474 nM
EC50 [6]: 3.49 nM

H-Y[Aib]QGTFTSD[4Pal]SQ[αMeL]LDKK([γGlu-AEEA-γGlu-C18 diacid])AQ[αMe4Pal]AFIEYLIE[Aib]GPSSGAPPPSGS-NH2 [Example 861]
EC50 [1]: 18.3 nM
EC50 [2]: 322 nM
EC50 [3]: 1350 nM
EC50 [4, 7]: 0.195 nM
EC50 [5, 7]: 2.62 nM
EC50 [6, 7]: 8.59 nM

H-Y[Aib]QGTFTSD[4Pal]SQ[αMeL]LDKK([AEEA-γGlu-C18 diacid])AQ[αMe4Pal]AFIE[αMeY]LIEGGPSSGAPPPSGS-NH2 [Example 844]
EC50 [1]: 43.3 nM
EC50 [2]: 151 nM
EC50 [3]: 583 nM
EC50 [4, 7]: 0.27 nM
EC50 [5, 7]: 0.61 nM
EC50 [6, 7]: 2.83 nM

CC[C@H](C)[C@H](NC(=O)[C@H](Cc1ccccc1)NC(=O)[C@H](CCCN)NC(=O)C(C)(C)NC(=O)[C@H](CCC(N)=O)NC(=O)[C@H](C)NC(=O)[C@H](CCCCNC(=O)CC[C@H](NC(=O)CC[C@H](NC(=O)CCCCCCCCCCCCCCCCC(=O)O)C(=O)O)C(=O)O)NC(=O)[C@H](CCCN)NC(=O)[C@H](CC(=O)O)NC(=O)[C@H](CC(C)C)NC(=O)[C@](C)(CC(C)C)NC(=O)[C@@H](NC(=O)[C@](C)(CO)NC(=O)[C@H](Cc1ccncc1)NC(=O)[C@H](CC(=O)O)NC(=O)[C@H](CO)NC(=O)[C@@H](NC(=O)[C@](C)(Cc1ccccc1F)NC(=O)[C@@H](NC(=O)CNC(=O)[C@H](CCC(N)=O)NC(=O)C(C)(C)NC(=O)[C@@H](N)Cc1ccc(O)cc1)[C@@H](C)O)[C@@H](C)O)[C@@H](C)CC)C(=O)N[C@H](CCC(=O)O)C(=O)N[C@@](C)(Cc1ccc(O)cc1)C(=O)N[C@@H](CC(C)C)C(=O)N[C@@H](CC(C)C)C(=O)N[C@@H](CCC(=O)O)C(=O)NCC(=O)NCC(=O)N1CCC[C@H]1C(=O)N[C@@H](CO)C(=O)N[C@@H](CO)C(=O)NCC(=O)N[C@@H](CCC(=O)O)C(=O)N1CCC[C@H]1C(=O)N1CCC[C@H]1C(=O)N1CCC[C@H]1C(=O)N[C@@H](CO)C(N)=O [Example 374] (H-Y[Aib]QGT[αMePhe(2-F)]TSD[4Pal][αMeS]I[αMeL]LD[Orn]K([γGlu-γGlu-C18 diacid])AQ[Aib][Orn]FI[dE][αMeY]LLEGGPSSGEPPPS-NH2)
EC50 [1]: 2.28 nM
EC50 [2]: 24.5 nM
EC50 [3]: 65.4 nM
EC50 [4, 7]: 0.0186 nM
EC50 [5, 7]: 0.336 nM
EC50 [6, 7]: 0.908 nM

H-Y[Aib]QGTFTSDFSK[αMeL]LDKK([AEEA-γGlu-C18 diacid])AQ[Aib]AFIEYLIE[Aib]SPSSGAPPPSGS-NH2 [Example 805]
EC50 [1]: 13 nM
EC50 [2]: 146 nM
EC50 [3]: 1210 nM
EC50 [4, 7]: 0.0875 nM
EC50 [5, 7]: 0.715 nM
EC50 [6, 7]: 3.97 nM

H-Y[Aib]QGTFTSDFS[Orn][αMeL]LDKK([γGlu-γGlu-C18 diacid])AQ[Aib]AFIEYLLEGGPSS[Aib]APPPGGS-NH2 [Example 770]
EC50 [1]: 18.2 nM
EC50 [2]: 240 nM
EC50 [3]: 390 nM
EC50 [4]: 0.244 nM
EC50 [5]: 3.91 nM
EC50 [6]: 5.37 nM

H-Y[Aib]QGTFTSD[4Pal]S[Orn][αMeL]LD[Orn]K([Glu-Glu-γGlu-C18 diacid])AQ[Aib]AFIE[αMeY]LLEGGPSSGAPPPSGSEE-NH2 [Example 1067]
EC50 [1]: 86.4 nM
EC50 [2]: 2610 nM
EC50 [3]: 1860 nM
EC50 [4, 7]: 0.471 nM
EC50 [5, 7]: 17.6 nM
EC50 [6, 7]: 12.6 nM

H-Y[Aib]QGT[αMePhe(2-F)]TSD[4Pal]SI[αMeL]LD[Orn]K([AEEA-γGlu-C18 diacid])AQ[αMe4Pal]EFI[dE][αMeY]LLEGGPSSGAPPPSGS-NH2 [Example 641]
EC50 [1]: 0.832 nM
EC50 [2]: 68.3 nM
EC50 [3]: 451 nM
EC50 [4]: 0.00819 nM
EC50 [5]: 0.489 nM
EC50 [6]: 3.72 nM

H-Y[Aib]QGT[αMePhe(2-F)]TSD[4Pal]SILLDKK([γGlu-γGlu-C18 diacid])AQ[Aib]AFIEYLEEGGPSSGAPPPSGTEE-NH2 [Example 609]
EC50 [1]: 6.19 nM
EC50 [2]: 121 nM
EC50 [3]: 647 nM
EC50 [4]: 0.0784 nM
EC50 [5]: 1.07 nM
EC50 [6]: 6.46 nM

H-Y[Aib]QGT[αMePhe(2-F)]TSD[4Pal][αMeS]I[αMeL]LD[Orn]K([γGlu-Glu-C18 diacid])AQ[Aib][Orn]FI[dE][αMeY]LSEGGPSSGEPPPSGTE-NH2 [Example 565]
EC50 [1]: 21.9 nM
EC50 [2]: 204 nM
EC50 [3]: 1770 nM
EC50 [4]: 0.107 nM
EC50 [5]: 1.24 nM
EC50 [6]: 10.3 nM

H-Y[Aib]QGT[αMePhe(2-F)]TSD[4Pal][αMeS]I[αMeL]LD[Orn]K([AEEA-γGlu-C18 diacid])AQ[Aib][Orn]FI[dE][αMeY]LIEGGPSSGEPPPEGTGE-NH2 [Example 697]
EC50 [1]: 0.607 nM
EC50 [2]: 18.2 nM
EC50 [3]: 130 nM
EC50 [4]: 0.0109 nM
EC50 [5]: 0.235 nM
EC50 [6]: 1.71 nM

H-Y[Aib]QGTFTSD[4Pal]SK[αMeL]LDKK([AEEA-γGlu-C18 diacid])AQ[Aib]AFIEYLIE[dA]GESSGEPPPSGS-NH2 [Example 284]
EC50 [1]: 59.8 nM
EC50 [2]: 271 nM
EC50 [3]: 1530 nM
EC50 [4, 7]: 0.347 nM
EC50 [5, 7]: 1.54 nM
EC50 [6, 7]: 9.21 nM

H-Y[Aib]QGTFTSD[4Pal]S[Orn][αMeL]LDKK([AEEA-γGlu-C18 diacid])AQ[Aib]AFIE[αMeY]LIEGGPSSGAPPPSGS-NH2 [Example 836]
EC50 [1]: 26.7 nM
EC50 [2]: 103 nM
EC50 [3]: 2100 nM
EC50 [4, 7]: 0.294 nM
EC50 [5, 7]: 0.794 nM
EC50 [6, 7]: 17.1 nM
